Experimental data published in patent US5075288A, “Somnogenic fragment of interleukin-1β” (The University of Tennessee Research Corporation, priority 1990, dated 1991).
Entries after “also recorded” stand apart in the source; their conditions may differ. Residues, ends and D or L forms follow the SMILES beside them.

Columns and labels:
[1] = tested on: male, New Zealand white pasteurella-free rabbits; assay: Rabbit sleep (EEG) and body temperature after ICV injection; assay type: in vivo; conditions: for Colonic Temperature Start: at the time of injection; for Colonic Temperature End: end of 6-h recording session; for NREMS / REMS: six-hour recording period
Text: A lateral cerebral ventricular guide cannula, a thermistor, and stainless steel screw electroencephalographic (EEG) electrodes were surgically implanted into male, New Zealand white pasteurella-free rabbits (about 3.5 kg). EEG electrodes were placed over the frontal and parietal cortices A 50,000 ohm calibrated thermistor (Model 4018, Omega Engineering, Stamford, Conn.) was implanted over the parietal cortex to measure brain temperature (Tbr). Insulated leads from the screws and the thermistor were routed to an amphenol plug attached to the skull with dental acrylic (DUZ-ALL, Coralite Dental Products, Skokie, Ill.). The guide cannula was placed in the left lateral cerebral ventricle. A minimum of two weeks was allowed for recovery before the animals were habituated to the recording chambers (Hotpack 352600, Philadelphia, Pa.). Food and water were available ad libitum. Each recording chamber contained an electronic swivel (Stoelting, Chicago, Ill.) suspended by a shock-absorbing system. A flexible tether connected the swivel to the Amphenol connector on the rabbit's head, thus allowing freedom of movement. An accelerometer (Grass, SPAI, Quincy, Mass.) attached to the shock-absorbing system provided an indication of body movement. The cables from the swivel and the accelerometer were connected to Grass 7D polygraphs in an adjacent room. The polygraphs recorded EEG, Tbr, and body movement for each animal. The EEG for each rabbit was passed through band-pass filters with the 0.5-3.5 Hz (delta), 4.0-7.5 Hz (theta), 8.0-12.5 Hz (alpha), and 13.0-15.0 Hz (beta) frequency bands rectified and averaged for 1-min intervals by a Buxco model 24/32 data logger (Buxco Electronics, Sharon, Conn.). These values for 1-min periods were used to compute hourly averages. EEG amplitudes in the delta frequency band during 1-min epochs of NREMS for each of the six postinjection hours were also determined. The 10 samples of greatest magnitude in each hour were averaged for each rabbit during control and test NREM sleep periods. […] Tbr S were also recorded using a data logger (Acrosystems 400, Beverly, Mass.), with values for each rabbit sampled at 10-min intervals. NREM sleep and REM sleep were measured as a percent of time over a six-hour recording period. Colonic temperatures (Tco) were taken with a flexible thermistor (YSI, Inc., Yellow Springs, Ohio) at the time of injection and at the end of 6-h recording session. IL1 fragments were dissolved in appropriate volumes of artificial cerebrospinal fluid (aCSF) (2 mM KC1, 1.15 mM CaCl2, and 0.96 mM MgCl2 in pyrogen free saline, […] NaCl [Abbott, N. Chicago, Ill.] Hu-rIL1β was supplied in phosphate-buffered saline (PBS) (0.4 mg/ml). All substances were injected into a lateral cerebral ventricle (ICV). Injection volumes were 12-25 μl per rabbit; each injection lasted about 2 min. Animals were injected between 0900 and 1000 h. Control recordings were obtained from each animal after injection of vehicle (aCSF). After injections, animals were recorded from the next 6 h. Data from all experiments were analyzed with the SPSS^x Information System. Friedman's test for k-related samples was used to test for differences across the 6-h recording periods. If significant differences were indicated, the Wilcoxon matched-pairs signed-ranks test was used to identify the specific hours in which the differences occurred. An alpha level of P<0.05 was accepted as indicating significance.

Murine D10 Cells = assay: T cell proliferation assay, [3H] thymidine incorporation in murine T cell line D10; assay type: cell-based, mouse
Protocol: Thymus glands were removed from 6-10 week old CD1 mice after mice had been sacrificed by cervical dislocation. Thymocytes were isolated by gently homogenizing the thymus glands in a dounce homogenizer. Thymocytes were suspended in RPMI 1640 containing 7.5% FCS and 5×10-^6 M 2-mercaptoethanol. Aliquots of the cell suspension (100 μl) were dispensed into wells of flat bottom microtiter plates (Linbro Plastics), and samples (50 μl) suspended in RPMI 1640 were added to appropriate wells. Plates were incubated at 37° C., 5% CO2, in a humidified atmosphere for 60 h, and wells were pulsed with [^3 H] thymidine (1 μCi, […]) for 12h. After the 12-h pulse, cells were harvested onto paper filter pads with a multiple-sample harvester, and thymocyte proliferation was determined by scintillation counting. In some experiments, the murine T cell line D10 was used instead of thymocytes as target cells using phytohemmagglutinin (1 μg/ml) as costimulant.

Molecule: 199-228: synthetic fragment of IL1β, amino acids 199-228 (ESVDPKNYPKKKMEKRFVFNKIEINNKLEF; UniProt P01584 199-228, looked up, fragment) [Peptide 199-228]
- Colonic Temperature Start ([1]; 25 μg ICV): 39.3 (0.1) °C
- Colonic Temperature End ([1]; 25 μg ICV): 39.4 (0.1) °C
- NREMS ([1]; 25 μg ICV): 50.9 (3.9) percent of time
- REMS ([1]; 25 μg ICV): 20.0 (1.2) percent of time
- somnogenic and pyrogenic activity: effect on sleep or Tbr (in words) ([1]; ICV, doses of Table 3): failed to alter sleep or Tbr
- T cell proliferation (in words) (Murine D10 Cells; murine D10 cells (Table 2)): stimulated T cell proliferation
- [3H] Thymidine Incorporation, Murine D10 Cells (Murine D10 Cells; standard deviation in, phytohemmagglutinin 1 μg/ml as costimulant): 2799 (652) counts per minute

Molecule: CC[C@H](C)[C@H](NC(=O)[C@H](CCC(=O)O)NC(=O)[C@@H](NC(=O)[C@H](CCCCN)NC(=O)[C@H](CC(N)=O)NC(=O)[C@H](Cc1ccccc1)NC(=O)[C@@H](NC(=O)[C@H](Cc1ccccc1)NC(=O)[C@H](CCCNC(=N)N)NC(=O)[C@H](CCCCN)NC(=O)[C@H](CCC(=O)O)NC(=O)[C@H](CCSC)NC(=O)[C@H](CCCCN)NC(=O)[C@H](CCCCN)NC(=O)[C@@H](N)CCCCN)C(C)C)[C@@H](C)CC)C(=O)N[C@@H](CC(N)=O)C(=O)N[C@@H](CC(N)=O)C(=O)N[C@@H](CCCCN)C(=O)N[C@@H](CC(C)C)C(=O)N[C@@H](CCC(=O)O)C(=O)N[C@@H](Cc1ccccc1)C(=O)N[C@@H](CCC(=O)O)C(=O)N[C@@H](CO)C(=O)N[C@@H](C)C(=O)N[C@@H](CCC(N)=O)C(=O)N[C@@H](Cc1ccccc1)C(=O)N1CCC[C@H]1C(=O)N[C@@H](CC(N)=O)C(=O)N[C@@H](Cc1c[nH]c2ccccc12)C(=O)N[C@@H](Cc1ccc(O)cc1)C(=O)N[C@H](C(=O)N[C@@H](CO)C(=O)N[C@H](C(=O)O)[C@@H](C)O)[C@@H](C)CC [Peptide 208-240] (H-KKKMEKRFVFNKIEINNKLEFESAQFPNWYIST-OH)
- abnormal behavior after injection ([1]; 25 μg ICV): no appearance of abnormal behavior; also recorded: did not appear to induce abnormal behavior

Molecule: IL1β: Recombinant human IL1β prepared by Cistron Biotechnology, Incorporated
- Colonic Temperature Start ([1]; 5 ng ICV): 39.2 (0.0) °C
- Colonic Temperature End ([1]; 5 ng ICV): 40.0 (0.1) °C
- NREMS ([1]; 5 ng ICV): 53.3 (3.2) percent of time
- REMS ([1]; 5 ng ICV): 4.4 (0.8) percent of time
- Colonic Temperature Start ([1]; 20 ng ICV): 39.3 (0.1) °C
- Colonic Temperature End ([1]; 20 ng ICV): 41.0 (0.3) °C
- NREMS ([1]; 20 ng ICV): 61.5 (4.3) percent of time
- REMS ([1]; 20 ng ICV): 2.1 (0.6) percent of time
